Measurements reported in patent publication US20060275321A1, “Polypeptide antagonists of HIV-1 Tat protein” (Phoenix Pharmaceuticals, Inc., priority 2005, published 2006).
Bridges are numbered along the chain shown (N, C = ends). Where no end group is shown, it is not given here. The star is where a group is joined. Acm = CC(=O)NC*

Tested on: dissociate cultured cortical neurons
Assay: Mobilization of intracellular Ca2+ in dissociate cultured cortical neurons (Fura-2 AM fluorescence)
Assay type: cell-based, rat
Conditions: dissociate and cultured cortical neurons of newborn Sprague-Dawley rats, value ± spread
Source text: Neurons can be isolated from cerebral cortex according to the protocols for postnatal dissociated nuerons as disclosed for example by Huettner, J. E. and Baughman, R. W., Primary Culture of Identified Neurons From the Visual Cortex of Postnatal Rats, Journal of Neurosciences 6; 3044-3060 (1986); Brewer, G. J., Isolation and Culture of Adult Rat Hippocampal Neurons, Journal of Neuroscience Methods, 71:143-155 (1997); and Brailoiu et al., NAADP Potentiates Neurite Outgrowth, Journal of Biological Chemistry (in press), each hereby incorporated by reference. Newborn Sprague-Dawley rates (about 1 day to about 4 days old) were killed by cervical dislocation. Cerebral cortex was removed and quickly immersed in ice-cold phosphate buffer solution. After removal of meninges, tissue was minced into about 1-millimeter blocks, incubated for about 45 minutes at 37° C. in Hanks balanced salt solution without Ca^2+ and Mg^2+ (Invitrogen, 1600 Faraday Avenue, Carlsbad, Calif. 92008) and supplemented with about 200 ug/mL penicillin, 0.1% EDTA and papain 0.15 mg/mL (Sigma-Aldrich, St. Louis, Mo.). In accordance with the procedure disclosed by Brewer, the tissue can be further dissociated by gentle mechanical trituration. […]

Substance: 30-86 Cys30Acm, Cys34Acm (Cys31-Cys37): HIV-1 Tat residues 30-86, Cys-Acm at 30 and 34, disulfide bridge Cys31-Cys37 (C(Acm)CFHC(Acm)QVCFITKALGISYGRKKRRQRRRAHQNSQTHQASLSKQPTSQPRGDPTGPKE; disulfide 2-8)
- [Ca^2+] response: No Response
